Experimental data as given in US12233128B2, “Degraders that target ALK and therapeutic uses thereof” (DANA-FARBER CANCER INSTITUTE, INC., priority 2018, dated 2025).

Columns and labels:
Type in all cases: cell-based
Aurora A = biological target: T1, Aurora A (Homo sapiens, UniProt O14965); assay: Western blot, off target degradation of Aurora A in H3122 cells; conditions: 16-hour treatment, 0.01-1 μM
T1 construct: ALK and aurora A degradation in H3122 cells; endogenous in cells; host or cells: H3122
T1 sequence (O14965 1-403): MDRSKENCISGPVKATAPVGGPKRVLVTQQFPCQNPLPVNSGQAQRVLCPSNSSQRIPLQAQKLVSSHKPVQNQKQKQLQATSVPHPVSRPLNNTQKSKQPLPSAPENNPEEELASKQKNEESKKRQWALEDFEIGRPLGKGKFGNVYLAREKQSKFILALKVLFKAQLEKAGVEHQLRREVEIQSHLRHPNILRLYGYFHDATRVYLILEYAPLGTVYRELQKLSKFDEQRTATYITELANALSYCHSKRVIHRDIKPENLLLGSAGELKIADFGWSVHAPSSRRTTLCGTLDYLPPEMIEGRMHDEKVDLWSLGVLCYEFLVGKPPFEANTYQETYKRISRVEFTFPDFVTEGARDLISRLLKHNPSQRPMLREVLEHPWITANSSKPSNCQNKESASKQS
Procedure: (§1) Blotting: Cells were washed with PBS before being lysed with Cell Lysis Buffer (Cell Signaling Technology®) supplemented with protease and phosphatase inhibitor cocktails (Roche™) at 4° C. for 15 minutes. The cell lysate was vortexed every 5 minutes over a 30-minute period before being centrifuged at 14,000×g for 20 min at 4° C. Protein in cell lysate was quantified by BCA assay (Pierce™). Primary antibodies used in this study include ALK (Cell Signaling Technology®, D5F3), Aurora A (Cell Signaling Technology®, 1F8), FAK (PTK2) (Cell Signaling Technology®, #3285), and GAPDH (Cell Signaling Technology®, 14C10). Blot quantification was performed using Image Studio™ 4.0 software, normalizing to loading control (GAPDH).

FAK (PTK2) = biological target: T2, FAK (PTK2) (Homo sapiens, UniProt Q05397); assay: Western blot, off target degradation of PTK2 in H3122 cells
T2 construct: endogenous in cells; host or cells: H3122
Procedure: as §1

ALK = biological target: T3, ALK (Homo sapiens, UniProt Q9UM73); assay: Western blot, degradation of ALK in H3122 cells; conditions: for degradation of ALK: 16-hour treatment, 0.01-1 μM
T3 construct: EML4 N-terminal fusion partner (human entry Q9HC35); endogenous in cells; host or cells: H3122; the other entry of the earlier key: EML4 (Q9HC35, Echinoderm microtubule-associated protein-like 4)
Procedure: as §1

H3122 cells = assay: CellTiter-Glo cell viability, anti-proliferative activity in H3122 cells; conditions: 72 hours, FIG. 1A
Procedure: (§2) CellTiter-Glo®: Cell viability was evaluated using the CellTiter-Glo® Luminescent Cell Viability Assay (Promega™) following the manufacturer's standards. 12-point dose titrations were tested in triplicate from 10000 nM to 0.056 nM over 72 hours. Anti-proliferative best fit EC50 values with 95% CI are shown as calculated by Graphpad Prism™ 7 software.

[1] = tested on: EML4-ALK with secondary mutations L1196M, C1156Y, or G1202R; assay: CellTiter-Glo cell viability, ALK-positive Ba/F3 cells with EML4-ALK secondary mutations; conditions: 72 hours, FIG. 1A
Procedure: as §2

[2] = tested on: EML4-ALK expressing cell lines; assay: CellTiter-Glo cell viability, EML4-ALK expressing cell lines; conditions: 72 hours, FIG. 2A / 3A
Procedure: as §2
The experimental protocol was as in Example 15.

T3 sequence (Q9UM73 with tags, fused parts or gaps): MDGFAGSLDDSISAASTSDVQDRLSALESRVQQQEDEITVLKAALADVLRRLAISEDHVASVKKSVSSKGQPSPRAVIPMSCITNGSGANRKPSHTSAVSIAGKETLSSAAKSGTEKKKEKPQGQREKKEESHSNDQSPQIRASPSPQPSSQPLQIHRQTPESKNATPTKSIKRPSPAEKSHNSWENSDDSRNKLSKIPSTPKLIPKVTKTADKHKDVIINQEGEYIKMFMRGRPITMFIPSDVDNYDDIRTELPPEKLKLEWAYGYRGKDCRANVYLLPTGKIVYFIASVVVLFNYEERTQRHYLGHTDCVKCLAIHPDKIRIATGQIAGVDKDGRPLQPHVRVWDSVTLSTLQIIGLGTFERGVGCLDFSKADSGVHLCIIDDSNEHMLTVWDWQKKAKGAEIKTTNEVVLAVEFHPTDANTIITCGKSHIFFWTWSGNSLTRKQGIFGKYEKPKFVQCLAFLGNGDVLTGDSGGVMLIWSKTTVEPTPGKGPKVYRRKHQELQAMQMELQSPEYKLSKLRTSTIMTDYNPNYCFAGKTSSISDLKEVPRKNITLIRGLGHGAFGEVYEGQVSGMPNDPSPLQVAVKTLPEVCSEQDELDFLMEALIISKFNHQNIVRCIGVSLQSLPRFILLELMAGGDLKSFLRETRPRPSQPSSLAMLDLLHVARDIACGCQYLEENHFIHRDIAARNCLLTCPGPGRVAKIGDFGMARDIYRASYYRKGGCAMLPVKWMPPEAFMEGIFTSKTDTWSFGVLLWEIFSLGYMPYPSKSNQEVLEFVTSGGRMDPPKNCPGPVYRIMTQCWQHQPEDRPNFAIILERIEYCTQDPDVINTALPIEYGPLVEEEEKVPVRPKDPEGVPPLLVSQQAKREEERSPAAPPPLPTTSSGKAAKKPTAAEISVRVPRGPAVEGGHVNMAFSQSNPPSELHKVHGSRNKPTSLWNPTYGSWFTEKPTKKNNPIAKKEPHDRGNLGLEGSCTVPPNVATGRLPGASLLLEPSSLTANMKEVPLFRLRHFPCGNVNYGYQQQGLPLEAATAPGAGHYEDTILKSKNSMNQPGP
T2 sequence (Q05397 whole entry): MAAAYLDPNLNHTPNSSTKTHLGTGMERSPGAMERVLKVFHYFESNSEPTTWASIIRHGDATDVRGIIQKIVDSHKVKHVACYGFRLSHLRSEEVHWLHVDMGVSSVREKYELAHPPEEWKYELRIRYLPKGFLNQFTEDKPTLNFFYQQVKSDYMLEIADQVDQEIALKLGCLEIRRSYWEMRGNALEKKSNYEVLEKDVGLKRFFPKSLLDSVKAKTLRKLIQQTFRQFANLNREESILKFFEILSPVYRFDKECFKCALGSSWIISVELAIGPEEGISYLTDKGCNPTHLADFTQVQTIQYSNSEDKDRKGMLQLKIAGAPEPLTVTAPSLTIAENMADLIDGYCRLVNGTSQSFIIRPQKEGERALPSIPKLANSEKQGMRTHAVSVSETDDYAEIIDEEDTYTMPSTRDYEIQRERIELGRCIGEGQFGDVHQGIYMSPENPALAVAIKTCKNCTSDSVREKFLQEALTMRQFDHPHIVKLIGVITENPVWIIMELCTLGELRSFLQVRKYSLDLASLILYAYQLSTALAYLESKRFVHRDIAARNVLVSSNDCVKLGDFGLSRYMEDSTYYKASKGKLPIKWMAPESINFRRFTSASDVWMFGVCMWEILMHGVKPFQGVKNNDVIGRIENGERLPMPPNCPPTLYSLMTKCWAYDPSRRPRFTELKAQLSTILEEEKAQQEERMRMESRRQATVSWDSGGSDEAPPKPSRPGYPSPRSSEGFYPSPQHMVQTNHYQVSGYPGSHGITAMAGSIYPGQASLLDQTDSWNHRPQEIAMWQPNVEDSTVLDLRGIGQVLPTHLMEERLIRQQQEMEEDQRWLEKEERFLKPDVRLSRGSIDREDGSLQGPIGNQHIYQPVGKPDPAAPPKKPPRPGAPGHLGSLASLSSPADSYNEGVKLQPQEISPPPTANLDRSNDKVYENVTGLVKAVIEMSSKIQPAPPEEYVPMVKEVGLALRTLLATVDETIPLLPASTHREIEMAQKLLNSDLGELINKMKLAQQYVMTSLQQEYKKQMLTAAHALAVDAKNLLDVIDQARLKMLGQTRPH

CCc1cc2c(cc1-c1cnn(CC(=O)N(C)CCOCCOCCOCCNc3cccc4c3C(=O)N(C3CCC(=O)NC3=O)C4=O)c1)C(C)(C)c1[nH]c3cc(C#N)ccc3c1C2=O (stereo not shown) [Compound 8, 2-(4-(3-cyano-9-ethyl-6,6-dimethyl-11-oxo-6,11-dihydro-5H-benzo[b]carbazol-8-yl)-1H-pyrazol-1-yl)-N-(2-(2-(2-(2-((2-(2,6-dioxopiperidin-3-yl)-1,3-dioxoisoindolin-4-yl)amino)ethoxy)ethoxy)ethoxy)ethyl)-N-methylacetamide]
off target degradation of Aurora A (Aurora A): off target degradation of aurora A was still seen at higher doses
degradation of PTK2 (FAK (PTK2); 16-hour treatment, 1 μM): slight degradation of PTK2

Cc1cc(Nc2ncc(Cl)c(Nc3ccccc3S(=O)(=O)C(C)C)n2)c(OC(C)C)cc1C1CCN(CCOCCOCCNC(=O)CNc2cccc3c2C(=O)N(C2CCC(=O)NC2=O)C3=O)CC1 (stereo not shown) [Compound 12, N-(2-(2-(2-(4-(4-((5-Chloro-4-((2-(isopropylsulfonyl)phenyl)-amino)pyrimidin-2-yl)amino)-5-isopropoxy-2-methylphenyl)-piperidin-1yl)ethoxy)ethoxy)ethyl)-2-((2-(2,6-dioxopiperidin-3-yl)-1,3-dioxoisoindolin-4-yl)amino)acetamide]
time at which ALK degradation is seen (ALK; time course, 100 nM): around 4 hours
time of maximum ALK degradation (ALK; time course, 100 nM): around 8 hours
off target degradation of PTK2 (FAK (PTK2); time course, 100 nM): off target degradation activity against PTK2 that was seen

CCc1cc2c(cc1-c1cnn(CC(=O)NCCOCCOCCNc3cccc4c3C(=O)N(C3CCC(=O)NC3=O)C4=O)c1)C(C)(C)c1[nH]c3cc(C#N)ccc3c1C2=O (stereo not shown) [Compound 4, 2-(4-(3-cyano-9-ethyl-6,6-dimethyl-11-oxo-6,11-dihydro-5H-benzo[b]carbazol-8-yl)-1H-pyrazol-1-yl)-N-(2-(2-(2-((2-(2,6-dioxopiperidin-3-yl)-1,3-dioxoisoindolin-4-yl)amino)ethoxy)ethoxy)ethyl)acetamide]
degradation of ALK (ALK): did not degrade ALK to a significant extent

CCc1cc2c(cc1N1CCC(N3CCN(C(=O)CCOCCOCCNc4cccc5c4C(=O)N(C4CCC(=O)NC4=O)C5=O)CC3)CC1)C(C)(C)c1[nH]c3cc(C#N)ccc3c1C2=O (stereo not shown) [Compound 2, 8-(4-(4-(3-(2-(2-((2-(2,6-dioxopiperidin-3-yl)-1,3-dioxoisoindolin-4-yl)amino)ethoxy)ethoxy)propanol)piperazin-1-yl)piperidin-1-yl)-9-ethyl-6,6-dimethyl-11-oxo-6,11-dihydro-5H-benzo[b]carbazole-3-carbonitrile]
off target degradation of Aurora A (Aurora A): Off target degradation of Aurora A was also seen
anti-proliferative activity in H3122 cells (H3122 cells): comparable to compound 12
degradation of ALK (ALK): ability to degrade ALK in a dose dependent manner
off target degradation of PTK2 (FAK (PTK2); 16-hour treatment, 0.01-1 μM): very low
activity against EML4-ALK with secondary mutations L1196M, C1156Y, or G1202R [1]: comparable to the parental inhibitor alectinib

CCc1cc2c(cc1-c1cnn(CC(=O)NCCOCCOCCOCCOCCOCCOCCNc3cccc4c3C(=O)N(C3CCC(=O)NC3=O)C4=O)c1)C(C)(C)c1[nH]c3cc(C#N)ccc3c1C2=O (stereo not shown) [Compound 5, 2-(4-(3-cyano-9-ethyl-6,6-dimethyl-11-oxo-6,11-dihydro-5H-benzo[b]carbazol-8-yl)-1H-pyrazol-1-yl)-N-(20-((2-(2,6-dioxopiperidin-3-yl)-1,3-dioxoisoindolin-4-yl)amino)-3,6,9,12,15,18-hexaoxaicosyl)acetamide]
degradation of ALK (ALK): significant degradation of ALK
anti-proliferative activity in EML4-ALK expressing cell lines [2]: slightly better activity than the other members of this group

CCc1cc2c(cc1-c1cnn(CC(=O)NCCOCCOCCOCCOCCNc3cccc4c3C(=O)N(C3CCC(=O)NC3=O)C4=O)c1)C(C)(C)c1[nH]c3cc(C#N)ccc3c1C2=O (stereo not shown) [Compound 6, 2-(4-(3-cyano-9-ethyl-6,6-dimethyl-11-oxo-6,11-dihydro-5H-benzo[b]carbazol-8-yl)-1H-pyrazol-1-yl)-N-(14-((2-(2,6-dioxopiperidin-3-yl)-1,3-dioxoisoindolin-4-yl)amino)-3,6,9,12-tetraoxatetradecyl)acetamide]
degradation of ALK (ALK): did not degrade ALK to a significant extent

CCc1cc2c(cc1N1CCC(N3CCN(C(=O)CCOCCOCCOCCOCCNc4cccc5c4C(=O)N(C4CCC(=O)NC4=O)C5=O)CC3)CC1)C(C)(C)c1[nH]c3cc(C#N)ccc3c1C2=O (stereo not shown) [Compound 1, 8-(4-(4-(1-((2-(2,6-dioxopiperidin-3-yl)-1,3-dioxoisoindolin-4-yl)amino)-3,6,9,12-tetraoxapentadecan-15-oyl)piperazin-1-yl)piperidin-1-yl)-9-ethyl-6,6-dimethyl-11-oxo-6,11-dihydro-5H-benzo[b]carbazole-3-carbonitrile]
off target degradation of Aurora A (Aurora A): Off target degradation of Aurora A was also seen
anti-proliferative activity in H3122 cells (H3122 cells): comparable to compound 12
degradation of ALK (ALK): ability to degrade ALK in a dose dependent manner
off target degradation of PTK2 (FAK (PTK2); 16-hour treatment, 0.01-1 μM): very low
activity against EML4-ALK with secondary mutations L1196M, C1156Y, or G1202R [1]: comparable to the parental inhibitor alectinib
